US6897036B2, “Fluorescent detection of peroxidase enzymes” (Lumigen, Inc., priority 2002, dated 2005)

Tests used:
Format in all cases: biochemical, horseradish
HRP [1] = target: T1, HRP (Armoracia rusticana, UniProt P00433); test: Evaluation of substrates: fluorescence spectra of the product formed by reaction with HRP; conditions: 0.05 mM substrate, HRP 13.8 fmol
T1 sequence (P00433 31-338): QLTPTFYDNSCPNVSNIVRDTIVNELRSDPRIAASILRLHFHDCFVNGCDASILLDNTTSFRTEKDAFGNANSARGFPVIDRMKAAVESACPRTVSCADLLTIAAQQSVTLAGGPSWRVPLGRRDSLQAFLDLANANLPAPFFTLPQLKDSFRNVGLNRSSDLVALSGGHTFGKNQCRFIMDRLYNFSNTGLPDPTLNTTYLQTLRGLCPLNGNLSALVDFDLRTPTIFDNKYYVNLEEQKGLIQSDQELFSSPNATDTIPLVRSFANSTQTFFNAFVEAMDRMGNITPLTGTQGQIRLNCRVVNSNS
Protocol: Enhanced reagent formulations containing each of Compounds 1-13 were prepared in either the Basic Formulation or the Acidic Formulation described below.
Fluorescence spectra were obtained on a Jobin Yvon/SPEX FluoroMax-3 spectrofluorometer with the excitation and emission slits set at 1.0 nm bandpass. UV Fluorimeter cuvettes (3.5 mL capacity, Perfector Scientific) were used.
Each of Compounds 1-13 was tested for production of a fluorescent product by reaction with HRP followed by spectrofluorometric analysis. A representative procedure using Compound 1 is described below. Essentially the same procedure was used for the other compounds.
Three mL of a 0.05 mM solution of ethyl N-methylacridan 9-carboxylate (Compound 1) in the acidic formulation were pipetted into a cuvette. Excitation (λem=524 nm) and emission (λex=[…]) spectra were recorded. HRP (13.8 fmol, 4.6×10^−12M) was added and mixed thoroughly. The increase in fluorescence at 524 nm was recorded over 15 min. Excitation (λem=524 nm) and emission (λex=357 nm) spectra were recorded again.

HRP [2] = target: T1, HRP; test: Fluorescence signal/background measurements in the presence of HRP; conditions: HRP 13.8 fmol, t=15 min vs t=0
Protocol: Three mL of a solution of each substrate in either the acidic or basic formulation described in Example 12 were pipetted into a cuvette. HRP (13.8 fmol, 4.6×10^−12M) was added and mixed thoroughly. The increase in fluorescence at the maximum was recorded after 15 min for each substrate. Signal-background values were calculated by comparing the fluorescence intensities at t=0 minutes and t=15 minutes.

HRP [3] = target: T1, HRP; test: Fluorescent detection sensitivity of HRP (microtiter plate fluorometer, FIG. 3); conditions: 0.05 mM substrate in acidic formulation
Protocol: FIG. 3 is a graph showing the linearity of detection of HRP using fluorogenic substrates performed according to the methods of the present invention. Solutions containing 0.05 mM substrate 1 or 4, 0.1 mM 4-phenylphenol, 0.5 mM urea peroxide, 1 mM EDTA, 0.025% TWEEN 20 in 10 mM acetate buffer, pH 5 and a solution of 0.05 mM substrate 2, 0.1 mM 4-phenylphenol, 0.5 mM urea peroxide, 1 mM EDTA, 0.025% TWEEN 20 in 10 mM in 10 mM tris, pH 8 were reacted with the indicated quantities of HRP. After a reaction period of 15-20 min, fluorescence intensity was measured at the maximum. The term Intensity-Background refers to the fluorescence intensity in relative light units in the presence of HRP corrected for background fluorescence (B) in the absence of HRP. […]
Fluorescence detection limits were obtained on a Labsystems Fluoroskan Ascent microtiter plate fluorometer using an excitation bandpass filter (380 nm) and an emission bandpass filter (465 or 530 nm). […] The strips were then read on the Fluoroskan Ascent with the 380 nm-530 nm filter set.
(§1) HRP was serially diluted in type 1 water and 10 μl of diluted HRP was pipetted into each well. […] The strips were then read on the Fluoroskan Ascent with the 380 nm-465 nm filter set.
as §1

HRP [4] = target: T1, HRP; test: Sequential fluorescence spectra and kinetics of fluorescent product formation with HRP
From the text: FIG. 1 is a graph showing a series of sequential fluorescence spectra obtained from a reaction solution containing Compound 10 and HRP. The spectra correspond to the fluorescence of the acridinium product. For comparison, the fluorescence spectrum of an independently prepared sample of N-methylacridinium triflate is shown.
FIG. 2 is a graph showing the time course of the generation of fluorescent product from the reaction described in FIG. 1. The product is monitored by excitation at 357 nm and detecting fluorescence emission at 495 nm.
FIG. 4 is a graph showing the a series of sequential fluorescence spectra obtained from a reaction solution containing compound 12 and HRP. The spectra reveal the formation of the acridinium ester intermediate and N-methylacridone product.
Three mL of a 0.05 mM solution of N-methylacridan in the acidic formulation were pipetted into a cuvette. HRP (13.8 fmol, 4.6×10^−12M) was added and mixed thoroughly. Emission spectra (excitation at 357 nm) were obtained at 4.5 minute intervals over 1.8 h. The emission spectrum (excitation at 357 nm) of a 0.05 mM solution of N-methyl acridinium triflate in the acidic formulation is also shown for comparison with the emission spectra from the N-methylacridan/HRP solution.
FIG. 2 depicts the fluorescence intensity at 495 nm (with excitation at 357 nm) from the reaction solution of Example 16 as a function of time. Fluorescence intensity reached a maximum in 2 h and remained constant.
Three mL of a reagent containing 0.3 mM 2′,3′,6′-trifluorophenyl 10-methylacridan-9-carboxylate (compound 12), 0.1 mM 4-phenylphenol, 0.5 mM urea peroxide, 1 mM EDTA, and 0.025% TWEEN 20 in 0.01 M tris buffer, pH 8.0 were pipetted into a cuvette. HRP (13.8 fmol, 4.6×10^−12M) was added and mixed thoroughly. Emission spectra (excitation at 357 nm) were obtained at 4.5 minute intervals over 1.8 h.

HRP [5] = target: T1, HRP; test: Fluorescent detection of HRP by acridinium ester end product formation; conditions: for Fluorescence wavelength of the acridinium end product: reaction with HRP, tris pH 8.0
Protocol: Forty μL of a detection reagent consisting of 0.05 mM compound 14, 0.6 mM urea peroxide, 0.1 mM p-phenylphenol, 0.025% TWEEN 20, 1 mM EDTA in 0.01 M tris buffer, pH 8.0 was reacted with 1 μL of HRP (1.4×10^−16 mol) at room temperature. Acridinium ester end product formation was detected after 5 min and continued to increase over 1 h as detected by spectrophotometry and fluorescence at 500 nm. [drawing 12]

[6] = 0.05 mM substrate, tris pH 8.0, HRP 1.4×10^−16 mol, room temperature

| SMILES | Fluorescent properties of acridan substrates (fluorescence emission maximum after reaction with HRP) (HRP [1]; pH 5 acidic formulation) | Fluorescent properties of acridan substrates (fluorescence emission maximum after reaction with HRP) (HRP [1]; pH 8 basic formulation) | Fluorescent intensity in the presence of HRP (as S/B) (HRP [2]; pH 5 acidic formulation) | also measured |
| --- | --- | --- | --- | --- |
| CCOC(=O)C1c2ccccc2N(C)c2ccccc21 [Compound 1, ethyl N-methylacridan 9-carboxylate] | 524 nm | 524 nm | 29.5 | Fluorescent intensity in the presence of HRP (as S/B) (HRP [2]; pH 8 basic formulation): 11.0; Fluorescent detection sensitivity of HRP (in words) (HRP [3]): excellent sensitivity |
| COc1ccc(C2c3ccccc3N(C)c3ccccc32)cc1 [Compound 3] | 484 nm | 484 nm | 1.4 |  |
| Fc1ccc(N2c3ccccc3Cc3ccccc32)cc1 [Compound 4, N-(4-fluorophenyl)acridan] | 497 nm | 496 nm | 3.9 | Fluorescent detection sensitivity of HRP (in words) (HRP [3]): excellent sensitivity |
| c1ccc(CN2c3ccccc3Cc3ccccc32)cc1 [Compound 5, N-benzylacridan] | 494 nm | 494 nm | 5.6 |  |
| COc1ccc2c(c1)N(c1ccccc1)c1ccccc1C2 [Compound 6] | 512 nm | 511 nm | 3.6 |  |
| CC1c2ccccc2N(C)c2ccccc21 [Compound 7] | 490 nm | 488 nm | 15.8 |  |
| O=C(O)C1c2ccccc2N(Cc2ccccc2)c2ccccc21 [Compound 8, N-benzyl-acridan-9-carboxylic acid] |  | 493 nm |  |  |
| CN1c2ccccc2C(C(=O)O)c2ccccc21 [Compound 9] |  | 489 nm |  | Fluorescent intensity in the presence of HRP (as S/B) (HRP [2]; pH 8 basic formulation): 4.3 |
| CN1c2ccccc2Cc2ccccc21 [Compound 10, N-methylacridan] |  | 490 nm |  | Time at which fluorescence intensity reached a maximum (HRP [4]; 0.05 mM in acidic formulation, HRP 13.8 fmol, emission 495 nm, excitation 357 nm): 2 h; Product of the HRP reaction identified from emission spectra (in words) (HRP [4]; 0.05 mM in acidic formulation, HRP 13.8 fmol, excitation 357 nm, compared with N-methyl acridinium triflate): enzymatic conversion of Compound 10 to the fluorescent acridinium compound |
| c1ccc(N2c3ccccc3C(C3c4ccccc4N(c4ccccc4)c4ccccc43)c3ccccc32)cc1 [Compound 11] | 494 nm | 494 nm | 84.0 | Fluorescent intensity in the presence of HRP (as S/B) (HRP [2]; pH 8 basic formulation): 6.1 |
| CN1c2ccccc2C(C(=O)Oc2c(F)ccc(F)c2F)c2ccccc21 [Compound 12, 2′,3′,6′-trifluorophenyl 10-methylacridan-9-carboxylate, reference compound] |  |  |  | Progression of the HRP reaction from emission spectra (in words) (HRP [4]; 0.3 mM substrate, tris buffer pH 8.0, HRP 13.8 fmol, spectra every 4.5 min over 1.8 h): grow in of acridinium fluorescence and gradual predominance of N-methylacridone fluorescence |
| COc1ccc2c(c1)N(C)c1cccc(OC)c1C2C(=O)Oc1c(F)ccc(F)c1F (stereo not shown) [Compound 14] |  |  |  | Period over which end product formation continued to increase (HRP [5]; [6]): 1 h; Time after which acridinium ester end product formation was detected (HRP [5]; [6]): 5 min; Fluorescence wavelength of the acridinium end product (HRP [5]): 500 nm |
| COc1ccc2c(c1)N(C)c1c(C)ccc(OC)c1C2C(=O)Oc1c(F)ccc(F)c1F (stereo not shown) [Compound 15, 2,3,6-trifluoro-phenyl 1,6-dimethoxy-4,10-dimethylacridan-9-carboxylate] |  |  |  | Result of the reaction with HRP (in words) (HRP [5]; experiment similar to that with compound 14): fluorescent acridinium end product formation; Fluorescence wavelength of the acridinium end product (HRP [5]): 500 nm |
